Drawing on ChEMBL document CHEMBL1201862, “PubChem BioAssay data set” (2004), this text covers AC50 and IC50 for twelve compounds.

For experiment [1], the target named is T1, Aryl hydrocarbon receptor (Homo sapiens, UniProt P35869).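 Note: confirmatory quantitative high-throughput screen measuring activation of the AhR signaling pathway.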
T1 sequence (P35869 whole entry): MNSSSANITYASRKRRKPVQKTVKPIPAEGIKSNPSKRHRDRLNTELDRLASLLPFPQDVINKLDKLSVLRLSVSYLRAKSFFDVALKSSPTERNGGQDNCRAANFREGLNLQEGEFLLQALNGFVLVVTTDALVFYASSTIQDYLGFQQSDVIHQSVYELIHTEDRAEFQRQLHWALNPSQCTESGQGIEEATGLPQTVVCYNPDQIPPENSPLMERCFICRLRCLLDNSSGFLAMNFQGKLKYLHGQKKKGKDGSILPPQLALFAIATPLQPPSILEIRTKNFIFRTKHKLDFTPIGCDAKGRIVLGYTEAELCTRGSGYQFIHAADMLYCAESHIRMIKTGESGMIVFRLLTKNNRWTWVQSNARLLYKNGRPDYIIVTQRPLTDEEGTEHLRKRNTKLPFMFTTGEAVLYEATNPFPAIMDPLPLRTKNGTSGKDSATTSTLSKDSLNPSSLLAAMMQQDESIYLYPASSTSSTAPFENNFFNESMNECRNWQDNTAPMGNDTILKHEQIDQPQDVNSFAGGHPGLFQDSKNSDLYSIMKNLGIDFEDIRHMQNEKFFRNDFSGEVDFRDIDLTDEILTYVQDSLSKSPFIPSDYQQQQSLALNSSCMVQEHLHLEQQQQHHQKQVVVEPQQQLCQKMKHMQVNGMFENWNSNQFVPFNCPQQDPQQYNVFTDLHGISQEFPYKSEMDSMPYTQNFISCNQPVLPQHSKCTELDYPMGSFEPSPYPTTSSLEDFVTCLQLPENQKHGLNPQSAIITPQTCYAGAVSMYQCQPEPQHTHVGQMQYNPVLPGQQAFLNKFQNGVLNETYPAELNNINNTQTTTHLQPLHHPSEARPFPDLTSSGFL
The following applies: Potency.

The target in experiment [2] is T2, Methionyl-tRNA synthetase, putative (Trypanosoma brucei brucei, UniProt Q38C91).
T2 sequence (Q38C91 whole entry): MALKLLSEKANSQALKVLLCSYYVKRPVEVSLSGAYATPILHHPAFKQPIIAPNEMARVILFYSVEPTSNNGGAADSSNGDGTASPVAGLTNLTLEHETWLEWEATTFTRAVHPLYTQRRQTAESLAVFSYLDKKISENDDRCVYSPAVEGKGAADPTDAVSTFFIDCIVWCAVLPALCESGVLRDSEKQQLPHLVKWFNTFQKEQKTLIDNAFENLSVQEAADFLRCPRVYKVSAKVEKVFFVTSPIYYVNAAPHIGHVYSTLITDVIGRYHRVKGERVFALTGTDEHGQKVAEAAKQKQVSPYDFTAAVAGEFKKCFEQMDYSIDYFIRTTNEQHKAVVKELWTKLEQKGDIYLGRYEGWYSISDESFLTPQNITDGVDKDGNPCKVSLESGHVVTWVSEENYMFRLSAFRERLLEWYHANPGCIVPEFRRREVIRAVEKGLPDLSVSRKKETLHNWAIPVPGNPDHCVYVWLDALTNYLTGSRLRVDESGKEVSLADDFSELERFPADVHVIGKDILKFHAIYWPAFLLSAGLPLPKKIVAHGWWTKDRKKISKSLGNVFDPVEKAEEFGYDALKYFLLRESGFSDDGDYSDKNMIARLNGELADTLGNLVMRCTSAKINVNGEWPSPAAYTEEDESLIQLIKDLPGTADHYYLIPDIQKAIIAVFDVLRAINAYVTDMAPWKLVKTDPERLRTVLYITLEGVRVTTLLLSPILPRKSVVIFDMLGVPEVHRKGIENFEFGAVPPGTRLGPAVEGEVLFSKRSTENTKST
It counts as functional, Trypanosoma brucei brucei strain 927/4 GUTat10.1.

The nature of experiment [3]: Counterscreen for inhibitors of Trypanosoma brucei methionyl tRNA synthetase (MetRS): Luminescence-based cell-based high throughput dose response assay to identify compounds that are cytotoxic to Jurkat human T lymphocyte cells. Format: functional. (Counterscreens check selectivity or assay interference.)
The target in experiment [4] is T2, Methionyl-tRNA synthetase, putative. It counts as functional, Trypanosoma brucei brucei strain 927/4 GUTat10.1. This is another data set of the same source.
A short description of experiment [5]: reduction of Shn3 3'UTR-driven luciferase in osteoblasts – cell-based, Clone20 osteoblasts, firefly luciferase, cherry-picked, dose response (AID 624132).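 Note: firefly luciferase luminescence from reporter carrying the Shn3 3'UTR in osteoblasts.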 Format: functional.
A short description of experiment [6]: HIV-1 AD8 envelope cell-cell fusion blockers – cherry-pick, dose response (AID 652062).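 Note: luciferase signal from cell-cell fusion driven by HIV-1 clade B AD8 Env; potency is for inhibitors of fusion seen as a drop in luminescence.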 It counts as functional, cell-based.
Experiment [7] in a line: blockers of HIV-1 envelope-mediated cell-cell fusion – cherry-pick, dose response (AID 652057). It counts as functional, cell-based.
The nature of experiment [8]: off-target signal loss in HeLa-CEM21 co-culture – HeLa F-luc CTL cells, cherry-picked, counter-screen for HIV-1 Env fusion inhibitor project, dose response (AID 652040).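 Note: potency for signal decrease marking cytotoxic or nonspecific inhibition.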 It counts as functional, cell-based.
A short description of experiment [9]: loss of viability in HepG2 cells – cell-based, CellTiter-Glo, cherry-picked, cytotoxicity control for Shn3 inhibitor project, dose response (AID 624134). It counts as functional. (In ATP-based viability assays light output follows the ATP content of the culture.)
The nature of experiment [10]: non-specific 3'UTR reporter inhibition in Clone20-Shn3RL – cell-based, Renilla luciferase, cherry-picked, counter-screen for Shn3 inhibitor project, dose response (AID 624133). It counts as functional.
For experiment [11], the target named is Protein Wnt-3a (Mus musculus, UniProt P27467). Nature of the experiment: antagonism of Wnt3a pathway luciferase reporter – Wnt-LIGHT cells, luminescence, selectivity assay for Gli-SUFU antagonist project, dose response (AID 651570).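 Note: Wnt-LIGHT reporter cells stimulated with conditioned medium from Wnt3a-producing cells.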 Format: functional. The following applies: read-out: IC50_Mean.
In experiment [12] the target is Potassium voltage-gated channel subfamily KQT member 2 (Rattus norvegicus, UniProt O88943). Nature of the experiment: blockers of KCNQ2 channel current – cell-based, automated electrophysiology, set II, rat KCNQ2, dose response (AID 588637). It counts as functional.
Experiment [13] is described as follows: Counterscreen for antagonists of the orexin 1 receptor (OX1R; HCRTR1): Fluorescence-based cell-based high throughput dose response assay to identify antagonists of the parental CHO cell line. [Related pubchem assays (depositor defined):AID434989, AID435008, AID463079, AID485270, AID492963, AID492964, AID492965, AID493232, AID504699, AID504701]. It counts as functional.

Experiment [14] has as its target T3, Orexin/Hypocretin receptor type 1 (Homo sapiens, UniProt O43613).
T3 sequence (O43613 whole entry): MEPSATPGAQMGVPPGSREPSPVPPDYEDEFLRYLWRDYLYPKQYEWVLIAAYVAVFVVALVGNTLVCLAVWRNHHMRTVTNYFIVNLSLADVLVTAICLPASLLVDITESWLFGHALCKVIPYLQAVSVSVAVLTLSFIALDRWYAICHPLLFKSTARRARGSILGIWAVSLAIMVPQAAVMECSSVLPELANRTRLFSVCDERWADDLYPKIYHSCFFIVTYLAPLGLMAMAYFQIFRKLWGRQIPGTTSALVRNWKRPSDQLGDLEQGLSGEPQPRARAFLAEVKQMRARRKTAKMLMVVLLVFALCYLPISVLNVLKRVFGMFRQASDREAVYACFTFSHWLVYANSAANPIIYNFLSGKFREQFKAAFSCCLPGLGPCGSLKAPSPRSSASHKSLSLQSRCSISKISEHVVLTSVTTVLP
Nature of the experiment: Fluorescence-based cell-based high throughput dose response assay for antagonists of the orexin 1 receptor (OX1R; HCRTR1). [Related pubchem assays (depositor defined):AID434989, AID435008, AID463079, AID485270, AID492963, AID492964, AID492965, AID493232, AID504717, AID504718]. Format: functional.

In experiment [15] the target is T3, Orexin/Hypocretin receptor type 1. The experiment in a line: Homogeneous Time Resolved Fluorescence (HTRF)-based cell-based high throughput dose response assay for antagonists of the orexin 1 receptor (OX1R; HCRTR1). [Related pubchem assays (depositor defined):AID434989, AID435008, AID463079, AID485270, AID492963, AID492964, AID492965, AID493232, AID504717, AID504718]. It counts as functional.

In experiment [16] the test system is CHO-K1. The experiment in a line: Counterscreen for antagonists of the orexin 1 receptor (OX1R; HCRTR1): Homogeneous time resolved fluorescence (HTRF)-based cell-based dose response assay to identify antagonists of the parental CHO-K1 cell line. [Related pubchem assays (depositor defined):AID434989, AID435008, AID463079, AID485270, AID492963, AID492964, AID492965, AID493232, AID504699, AID504701]. It counts as functional. The following applies: Cricetulus griseus.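 Note: potency for inhibition of ATP-stimulated IP1 production as antagonists.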

In experiment [17] the target is T4, Orexin receptor type 2 (Homo sapiens, UniProt O43614).
T4 sequence (O43614 whole entry): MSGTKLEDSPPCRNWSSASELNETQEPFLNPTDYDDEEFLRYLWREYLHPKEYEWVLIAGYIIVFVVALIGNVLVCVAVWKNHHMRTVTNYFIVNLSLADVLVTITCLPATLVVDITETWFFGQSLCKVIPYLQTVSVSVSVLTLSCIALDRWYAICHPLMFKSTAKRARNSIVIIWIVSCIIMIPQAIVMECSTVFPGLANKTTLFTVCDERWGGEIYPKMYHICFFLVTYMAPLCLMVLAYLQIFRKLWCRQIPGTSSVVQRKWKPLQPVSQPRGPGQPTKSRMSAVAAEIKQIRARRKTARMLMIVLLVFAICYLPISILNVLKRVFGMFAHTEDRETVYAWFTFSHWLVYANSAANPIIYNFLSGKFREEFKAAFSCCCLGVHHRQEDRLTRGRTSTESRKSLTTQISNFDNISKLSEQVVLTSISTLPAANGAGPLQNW
The experiment in a line: Counterscreen assay for antagonists of the orexin 1 receptor (OX1R; HCRTR1): Fluorescence-based cell-based dose response assay for antagonists of the orexin 2 receptor (OX2R; HCRTR2), run by assay provider. Format: functional.

In experiment [18] the target is T4, Orexin receptor type 2. Nature of the experiment: Counterscreen assay for antagonists of the orexin 1 receptor (OX1R; HCRTR1): Homogeneous Time Resolved Fluorescence (HTRF)-based cell-based dose response assay for antagonists of the orexin 2 receptor (OX2R; HCRTR2), run by assay provider. Format: functional.
The target of experiment [19] is Mitogen-activated protein kinase 10 (Homo sapiens, UniProt P53779). Nature of the experiment: Dose response biochemical screening assay for inhibitors of c-Jun N-Terminal Kinase 3 (JNK3). [Related pubchem assays: 746 ].
In experiment [20] the target is T5, Interleukin-8 (Homo sapiens, UniProt P10145).
T5 sequence (P10145 whole entry): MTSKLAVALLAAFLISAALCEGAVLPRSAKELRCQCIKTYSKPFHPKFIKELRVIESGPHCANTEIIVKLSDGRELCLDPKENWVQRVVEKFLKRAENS
Nature of the experiment: Dose Response confirmation of uHTS small molecule hits for cystic fibrosis induced NFkb Inhibitors in a PAF-induced IL8 counterscreen. Format: functional. The following applies: read-out: IC50_Mean.

For experiment [21], the target named is Long-chain-fatty-acid--AMP ligase FadD28 (Mycobacterium tuberculosis, UniProt P9WQ59). The experiment in a line: Fluorescence polarization aasay to screen for inhibitors that compete for the binding of FadD28 to a bisubstrate Measured in Biochemical System Using Plate Reader - 2147-01_Inhibitor_Dose_CherryPick_Activity. Format: functional, Mycobacterium tuberculosis H37Rv. (In general: Polarisation of emitted light reports the rotation of a fluorescent probe.)

SMILES strings stand for the structures. Calls of active or inactive are those of the source.

Chain of Potassium voltage-gated channel subfamily KQT member 2 (O88943 whole entry): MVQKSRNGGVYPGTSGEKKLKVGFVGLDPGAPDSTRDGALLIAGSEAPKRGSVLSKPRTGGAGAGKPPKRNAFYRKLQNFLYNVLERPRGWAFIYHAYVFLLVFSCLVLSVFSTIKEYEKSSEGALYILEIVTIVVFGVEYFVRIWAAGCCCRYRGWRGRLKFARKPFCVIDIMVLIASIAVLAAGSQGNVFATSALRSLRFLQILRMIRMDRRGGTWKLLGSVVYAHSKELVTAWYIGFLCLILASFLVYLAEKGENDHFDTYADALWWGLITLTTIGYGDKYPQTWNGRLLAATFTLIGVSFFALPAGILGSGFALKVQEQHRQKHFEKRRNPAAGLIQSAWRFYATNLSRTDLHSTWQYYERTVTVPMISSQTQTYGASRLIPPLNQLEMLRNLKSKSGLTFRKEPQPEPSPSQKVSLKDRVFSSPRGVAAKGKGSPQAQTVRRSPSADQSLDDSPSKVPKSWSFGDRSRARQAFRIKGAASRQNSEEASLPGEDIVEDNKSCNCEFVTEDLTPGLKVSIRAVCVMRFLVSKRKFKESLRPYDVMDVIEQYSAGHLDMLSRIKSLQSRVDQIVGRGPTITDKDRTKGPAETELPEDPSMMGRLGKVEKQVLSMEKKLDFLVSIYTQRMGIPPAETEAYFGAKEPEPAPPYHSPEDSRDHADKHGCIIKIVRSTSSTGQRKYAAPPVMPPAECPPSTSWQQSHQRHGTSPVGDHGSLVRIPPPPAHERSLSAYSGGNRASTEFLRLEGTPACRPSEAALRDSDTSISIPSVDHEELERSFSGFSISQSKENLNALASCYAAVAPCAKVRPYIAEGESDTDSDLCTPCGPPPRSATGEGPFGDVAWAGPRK
Chain of Protein Wnt-3a (P27467 whole entry): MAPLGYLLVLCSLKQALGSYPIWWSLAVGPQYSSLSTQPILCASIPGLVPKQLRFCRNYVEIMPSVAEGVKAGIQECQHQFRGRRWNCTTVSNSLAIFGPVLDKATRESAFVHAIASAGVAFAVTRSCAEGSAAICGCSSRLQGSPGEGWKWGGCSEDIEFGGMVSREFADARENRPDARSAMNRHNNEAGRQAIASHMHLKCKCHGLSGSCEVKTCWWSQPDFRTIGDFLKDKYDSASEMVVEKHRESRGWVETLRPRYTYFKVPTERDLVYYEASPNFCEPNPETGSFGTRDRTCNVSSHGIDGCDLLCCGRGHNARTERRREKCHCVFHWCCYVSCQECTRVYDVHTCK
Chain of Long-chain-fatty-acid--AMP ligase FadD28 (P9WQ59 whole entry): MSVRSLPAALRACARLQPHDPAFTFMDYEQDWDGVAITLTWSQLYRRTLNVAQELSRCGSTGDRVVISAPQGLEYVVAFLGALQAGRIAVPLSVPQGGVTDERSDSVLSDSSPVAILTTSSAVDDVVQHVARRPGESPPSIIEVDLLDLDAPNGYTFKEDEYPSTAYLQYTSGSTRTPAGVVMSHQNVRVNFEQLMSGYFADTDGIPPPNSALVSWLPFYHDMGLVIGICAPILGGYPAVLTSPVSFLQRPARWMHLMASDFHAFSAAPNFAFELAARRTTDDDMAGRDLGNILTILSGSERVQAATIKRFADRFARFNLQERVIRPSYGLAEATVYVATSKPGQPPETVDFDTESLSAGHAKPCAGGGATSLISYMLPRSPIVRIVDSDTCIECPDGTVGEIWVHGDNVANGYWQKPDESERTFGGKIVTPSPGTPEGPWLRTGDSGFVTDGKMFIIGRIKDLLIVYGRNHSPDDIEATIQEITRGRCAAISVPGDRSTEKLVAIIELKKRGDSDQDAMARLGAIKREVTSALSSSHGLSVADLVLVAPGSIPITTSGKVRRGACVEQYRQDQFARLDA
Chain of Mitogen-activated protein kinase 10 (P53779 whole entry): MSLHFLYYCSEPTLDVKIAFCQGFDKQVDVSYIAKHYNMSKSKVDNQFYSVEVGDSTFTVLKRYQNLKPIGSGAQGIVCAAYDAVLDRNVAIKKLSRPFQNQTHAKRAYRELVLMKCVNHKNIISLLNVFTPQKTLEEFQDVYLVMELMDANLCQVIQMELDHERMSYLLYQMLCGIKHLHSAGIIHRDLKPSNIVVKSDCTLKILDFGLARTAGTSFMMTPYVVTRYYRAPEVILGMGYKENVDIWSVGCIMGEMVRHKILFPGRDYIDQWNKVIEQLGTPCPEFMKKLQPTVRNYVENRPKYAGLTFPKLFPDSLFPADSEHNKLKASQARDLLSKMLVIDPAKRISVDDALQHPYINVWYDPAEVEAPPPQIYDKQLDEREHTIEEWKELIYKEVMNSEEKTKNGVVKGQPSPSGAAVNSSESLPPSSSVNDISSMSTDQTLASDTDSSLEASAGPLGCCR

Take `CC1=C(C(=O)Nc2ccccc2)SCCO1` [CARBOXIN]: the AC50 in [1] was 50.1 µM (inconclusive).
As for `O=C(Cc1ccc(Nc2nc3cc(Br)ccc3[nH]2)cc1)NCCc1cccs1`, the IC50 in experiment [2] is 0.286 µM (active); in [3] it was 27.8 µM (inactive); in [4], 0.163 µM (active).
For `CCC(C)NS(=O)(=O)c1ccc(S(=O)(=O)N2CCCC3(CCCCC3)C2)cc1` (stereo not drawn), the AC50 is 3.44 µM (active) in experiment [5]; 11.7 µM (active) in [6]; 21.4 µM (active) in [7]; 58.9 µM (active) in experiment [8]; 6.54 µM (active) in experiment [9]; 5.9 µM (active) in experiment [10]. In addition, the IC50 in experiment [11] is 5.16 µM (active).
Take `CCC(C(=O)Nc1ccccc1N1CCCC1)c1ccccc1` (stereo not drawn): the IC50 in [12] was 0.161 µM (active).
Take `Cc1ccc2nc(Nc3ccccc3)c(/C=N/O)c(=O)n2c1`: the IC50 in experiment [13] was > 49.8 µM (inactive); in experiment [14] it was 9.96 µM (active); in experiment [15] it was 5.11 µM (active); in experiment [16] it was > 66.3 µM (inactive); in experiment [17] it was 32.5 µM (inactive); in experiment [18], > 50 µM (inactive).
For `COc1ccc(-c2cnc(N)nc2-c2ccc(OC)cc2O)cc1`, the IC50 in experiment [19] was 19.9 µM (not active); in experiment [20], 14.6 µM (inactive).
Turning to `COc1cccc(C2c3[nH]c4ccccc4c3C[C@H]3C(=O)N(C4CC4)CC(=O)N23)c1` (stereo partly drawn), the IC50 was 36.8 µM (inactive) in experiment [2], 83.2 µM (inactive) in [3] and 118 µM (inactive) in [4].
For the compound `CCc1sc(C(=O)Nc2ccccc2N2CCOCC2)cc1C`, the IC50 in experiment [12] is 5.75 µM (active).
With `NC(=O)c1ccccc1OCC(=O)N1CCC(Cc2ccccc2)CC1`, in experiment [11], the IC50 was 3.28 µM (active).
As to `Cc1ccc2c(c1[N+](=O)[O-])C(=O)c1ccccc1C2=O`, the AC50 in experiment [1] was 17.8 µM (inconclusive).
As for `COc1ccc(CN2CCC(C(=O)Nc3ccc(Oc4cccnc4)cc3)CC2)cc1`, in experiment [21], the AC50 is > 100 µM (inactive).
Regarding `COC(=O)[C@H](Cc1c[nH]c2ccccc12)NC(=O)CCCc1c[nH]c2ccccc12`, the IC50 in [13] is 17.4 µM (inactive); in experiment [14] it was 9.04 µM (active); in experiment [15], 15.3 µM (inactive); in [16], > 66.2 µM (inactive); in [17] it was 17.2 µM (inactive); in experiment [18] it was 6.41 µM (active).

In general, AC50 refers to the concentration at which the activity in the assay is half-maximal.
